Assay results published in patent US20260027121A1, “LIGAND ACTING ON ADENOSINE RECEPTORS AND COMPOSITION COMPRISING SAME FOR PREVENTION, ALLEVIATION, OR TREATMENT OF OBESITYS” (FUTURE MEDICINE CO., LTD., priority 2022, published 2026).

Assays:
brown adipocytes [1] = assay: Cytotoxicity / cell viability (EZ-CYTOX); type: cell-based, mouse; conditions: 24 hours
Procedure: (§1) Adipocyte precursor cells capable of differentiating into brown adipocytes were isolated from mouse brown adipose tissue. Cells were cultured in Dulbecco's modified Eagle's medium (Welgene, LM001-07) containing 10% fetal bovine serum (FBS, Gibco, 16000044) and 1% Penicillin Streptomycin (Welgene, LS202-02) at 37° C. in a humidified atmosphere with 5% CO2. When the cells reached about 100% confluency, the cells were exposed to a differentiation medium supplemented with 2.5 mM isobutyl methylxanthine (IBMX, Cayman, I5879), 0.125 mM indomethacin (Cayman, 70270), 1 μM dexamethasone (Cayman), 1 μg/mL insulin (Sigma, I9278), and 1 nM triiodothyronine (T3, Cayman, 6028) for 3 days for adipogenesis. Then, the cells were maintained in a growth medium containing 1 μg/mL insulin and 1 nM triiodothyronine (T3) for 3 days.
LJ-4378 is a dual-acting ligand with A2AAR agonist and A3AR antagonist activity. Cell viability was evaluated according to the manufacturer's instructions using EZ-CYTOX (DoGEN, EZ-3000). Absorbance was measured at 450 nm using a microplate reader (Thermo MULTISKAN GO, 8816-2015).

brown adipocytes [2] = assay: Immunoblot of PKA downstream proteins (P-HSL, P-CREB) in brown adipocytes; type: cell-based, mouse
Procedure: as §1
(§2) In the case of Western blots, the primary antibodies used for Western blots are summarized in [Table 2] above. An anti-rabbit horseradish peroxidase antibody (1:3000, Thermo Fisher, 31460) and an anti-mouse horseradish peroxidase antibody (1:3000, Jackson, 115-035-174) were used as secondary antibodies. All antibodies were diluted in a blocking buffer (5% skimmed milk or 5% bovine serum albumin in TBST). Western blot images were acquired using a Fusion Solo chemiluminescence imaging system (Vilber Lourmat) and analyzed with Evolution Capt software (version 17.03). NIH ImageJ software was used for quantification.

brown adipocytes [3] = assay: Lipolysis: glycerol and free fatty acid levels in conditioned medium; type: cell-based, mouse; conditions: 0.1 μM, 24 hours
Procedure: as §1
The free fatty acid (FFA) levels in the medium were measured using an NEFA reagent (WAKO, 436-91693) according to the manufacturer's product protocol.
Glycerol and free fatty acid (FFA) levels in a medium were measured using a glycerol reagent (Sigma Aldrich, F6428) and a NEFA reagent (WAKO, 436-91693) according to the manufacturer's product protocols.

brown adipocytes [4] = assay: Immunoblot of mitochondrial proteins and UCP1 in brown adipocytes; type: cell-based, mouse
Procedure: as §1, §2

brown adipocytes [5] = assay: Oxygen consumption rate (XFp analyzer); type: cell-based, mouse; conditions: 0.1 μM, 24 hours
Procedure: Oxygen consumption rate (OCR) was measured using an XFp analyzer. Cells were cultured in XF DMEM basal medium (Agilent, 103575-100, pH 7.4) supplemented with 4 mM L-glutamine (Sigma, G8540) and 25 mM D-glucose (Sigma, G7021) at 37° C. The XFp Cell Mitochondrial Stress Test Kit (Agilent, 103010-100) was prepared and calculated sequentially with optimal final concentrations of 2.5 μM oligomycin, 0.5 μM FCCP and 0.5 μM rotenone/antimycin A and basal, maximal and proton leakage. Then, the OCR was normalized to protein concentration.

BAT, iWAT, and gWAT = assay: TTC staining of adipose tissue (ex vivo electron transport activity); type: in vivo, mouse; conditions: mice, 1 mg·kg-1day-1 intraperitoneally, 10 days
Procedure: 6-week-old C57BL/6 male mice and CIDEA reporter mice were used according to the approved protocols by Institutional Animal Care and Use Committees of Seoul National University (SNU-201107-1, SNU-201221-3) for in vivo experiments. The mice were housed under a 12 h-light/12 h-dark cycle condition with free access to a normal chow diet (NCD, Purina Lab, 38057, protein: 24.52% calories, carbohydrate: 63.07% calories, and fat: 12.41% calories) and water at 22±1° C. […] Ex vivo electron transport activity associated with mitochondrial oxidative phosphorylation was evaluated by monitoring the reduction of 0.1% triphenyl tetrazolium chloride (TTC, Sigma, T8877).

CIDEA reporter mice = assay: qPCR of brown adipocyte markers in brown adipose tissue; type: in vivo, mouse; conditions: BAT, 1 mg kg-1/day, 10 days
Procedure: Mice were treated with vehicle (CTL), LJ-4378 (LJ, 1 mg kg-1/day), […] (CGS21680, 1 mg kg-1/day), or A3 antagonist (LJ-4433, 1 mg kg-1/day) for 10 days. (A-B) Representative bioluminescence in dorsal and lateral positions (n=3, mean±SEM, ** p<0.01, **** p<0.0001). (C) Representative ex vivo fluorescence image and quantification of fluorescence intensity of BAT and iWAT (n=3, mean±SEM, ** p<0.01, **** p<0.0001). (D) qPCR analysis of UCP1 and CIDEAM RNA expression levels of brown adipose tissue (BAT) (n=3, mean±SEM, * p<0.05, ** p<0.01, *** p<0.001).
qPCR analysis was performed to investigate the adenosine receptor expression levels in brown adipocytes differentiated from immortalized brown adipocyte precursor cells. Primers used for the qPCR analysis are listed in the following [Table 3].

HFD-fed mice = assay: Immunoblot of BAT and iWAT of treated obese mice; type: in vivo, mouse; conditions: 1 mg kg-1/day, 10 days
Procedure: Mice fed a normal chow diet (NCD) and a high-fat diet (HFD) were treated with LJ-4378 (LJ, 1 mg kg-1/day) for 10 days. (A) Immunoblot analysis of BAT (n=6, mean±SEM, ** p<0.01, **** p<0.0001). (B) Immunoblot analysis in iWAT. Tubulin was a loading control. (n=6, mean±SEM, * p<0.05, *** p<0.001, **** p<0.0001).
For a diet-induced obesity model, mice were fed a high-fat diet (HFD)(Research Diets, D12492, protein: 20% kcal, carbohydrate: 20% kcal, and fat: 60% kcal) for 8 weeks. Then, LJ-4378 (1 mg kg-1) was injected into the mice once daily for 10 days.
as §2

CCCCC#Cc1nc(N)c2ncn([C@@H]3SC[C@@H](O)[C@H]3O)c2n1 [LJ-4378, 2-(6-amino-2-(hex-1-yn-1-yl)-9H-purin-9-yl)tetrahydrothiophene-3,4-diol]
concentrations with no effect on cell viability (brown adipocytes [1]): less than 100 μM | P-CREB, fold increase (brown adipocytes [2]; 0.1 μM, 24 hours, FIG. 3D): 2.32±0.05 fold | P-HSL, fold increase (brown adipocytes [2]; 0.1 μM, 24 hours, FIG. 3D): 2.10±0.12 fold | P-HSL (serine 660) expression level, fold increase (brown adipocytes [2]; 10^−5, 4 hours): 6.87±0.69 fold | P-HSL (serine 660) expression level, fold increase (brown adipocytes [2]; 10^−7, 4 hours): 6.64±0.34 fold | P-HSL (serine 660) expression level, fold increase (brown adipocytes [2]; 10^−9 M, 4 hours): 3.03±0.21 fold | P-HSL (serine 660) expression level, fold increase (brown adipocytes [2]; 10^−11 M, 4 hours): 1.55±0.11 fold | free fatty acid (FFA) level, fold increase (brown adipocytes [3]; FIG. 2): 1.92±0.03 fold | glycerol level in conditioned medium, fold change (brown adipocytes [3]; FIG. 3B): 1.61±0.07 fold | FFA level in conditioned medium, fold change (brown adipocytes [3]; FIG. 3C): 1.59±0.1 fold | COXIV expression level, fold increase (brown adipocytes [4]; 0.1 μM, 24 hours, FIG. 4A): 2.18±0.15 fold | UCP1 expression level, fold increase (brown adipocytes [4]; 0.1 μM, 24 hours, FIG. 4A): 2.93±0.23 fold | COXIV, fold increase (brown adipocytes [4]; 0.1 μM, 24 hours, FIG. 4D): 2.53±0.08 fold | MCAD, fold increase (brown adipocytes [4]; 0.1 μM, 24 hours, FIG. 4D): 4.91±0.02 fold | UCP1, fold increase (brown adipocytes [4]; 0.1 μM, 24 hours, FIG. 4D): 2.67±0.38 fold | ATP5A protein, fold increase (brown adipocytes [4]; 10^−5, 48 hours): 3.72±0.04 fold | MCAD protein, fold increase (brown adipocytes [4]; 10^−5, 48 hours): 2.13±0.03 fold | SDHB protein, fold increase (brown adipocytes [4]; 10^−5, 48 hours): 3.71±0.25 fold | UQCRC2 protein, fold increase (brown adipocytes [4]; 10^−5, 48 hours): 4.02±0.08 fold | ATP5A protein, fold increase (brown adipocytes [4]; 10^−7, 48 hours): 3.94±0.06 fold | MCAD protein, fold increase (brown adipocytes [4]; 10^−7, 48 hours): 1.79±0.09 fold | SDHB protein, fold increase (brown adipocytes [4]; 10^−7, 48 hours): 3.41±0.47 fold | UQCRC2 protein, fold increase (brown adipocytes [4]; 10^−7, 48 hours): 4.21±0.13 fold | ATP5A protein, fold increase (brown adipocytes [4]; 10^−9 M, 48 hours): 3.51±0.05 fold | MCAD protein, fold increase (brown adipocytes [4]; 10^−9 M, 48 hours): 1.79±0.03 fold | SDHB protein, fold increase (brown adipocytes [4]; 10^−9 M, 48 hours): 3.47±0.18 fold | UQCRC2 protein, fold increase (brown adipocytes [4]; 10^−9 M, 48 hours): 3.96 fold | ATP5A protein, fold increase (brown adipocytes [4]; 10^−11 M, 48 hours): 2.20±0.08 fold | MCAD protein, fold increase (brown adipocytes [4]; 10^−11 M, 48 hours): 1.53±0.03 fold | SDHB protein, fold increase (brown adipocytes [4]; 10^−11 M, 48 hours): 1.87±0.28 fold | UQCRC2 protein, fold increase (brown adipocytes [4]; 10^−11 M, 48 hours): 2.15±0.03 fold | increase of OCR related to ATP production (brown adipocytes [5]): 29.3% | increase of OCR related to basal (brown adipocytes [5]): 30.5% | increase of OCR related to maximal (brown adipocytes [5]): 49.1% | mitochondrial activity (TTC staining), fold increase in BAT (BAT, iWAT, and gWAT): 2.86±0.24 fold | mitochondrial activity (TTC staining), fold increase in gWAT (BAT, iWAT, and gWAT): 1.72±0.16 fold | mitochondrial activity (TTC staining), fold increase in iWAT (BAT, iWAT, and gWAT): 2.07±0.17 fold | Cidea mRNA level, fold increase (CIDEA reporter mice): 1.72±0.06 fold | Ucp1 mRNA level, fold increase (CIDEA reporter mice): 2.13±0.21 fold | COXIV upregulation in BAT (HFD-fed mice): 5.91±0.23 fold | COXIV upregulation in iWAT (HFD-fed mice): 1.24±0.04 fold | P-CREB upregulation in BAT (HFD-fed mice): 1.54±0.03 fold | P-CREB upregulation in iWAT (HFD-fed mice): 3.86±0.12 fold | P-HSL upregulation in BAT (HFD-fed mice): 2.31±0.18 fold | P-HSL upregulation in iWAT (HFD-fed mice): 1.72±0.04 fold | UCP1 upregulation in BAT (HFD-fed mice): 1.33±0.06 fold | UCP1 upregulation in iWAT (HFD-fed mice): 3.34±0.36 fold
